From patent publication US6780853B1, “Neuroactive steroids of the androstane and pregnane series” (priority 1995, dated 2004)
Read-outs that look alike come from different tables or passages of the source.

Legend:
[1] = tested on: metrazol induced convulsions; conditions: cited from earlier work
[2] = tested on: BIC (bicuclline) convulsions; conditions: cited from earlier work
[3] = tested on: STR (strychnine) convulsions; conditions: cited from earlier work
[4] = tested on: maximal electroshock tonic seizure; conditions: cited from earlier work
Estrogen Receptors = biological target: T1, Estrogen Receptors (Bos taurus, UniProt P49884); assay: Inhibition of 3H-Estradiol Binding to Bovine Uteral Estrogen Receptors; conditions: competitor 10^−6M; 3H-estradiol 0.15 nM
T1 construct: from tissue; host or cells: bovine uterus cytosol
T1 sequence (P49884 1-596): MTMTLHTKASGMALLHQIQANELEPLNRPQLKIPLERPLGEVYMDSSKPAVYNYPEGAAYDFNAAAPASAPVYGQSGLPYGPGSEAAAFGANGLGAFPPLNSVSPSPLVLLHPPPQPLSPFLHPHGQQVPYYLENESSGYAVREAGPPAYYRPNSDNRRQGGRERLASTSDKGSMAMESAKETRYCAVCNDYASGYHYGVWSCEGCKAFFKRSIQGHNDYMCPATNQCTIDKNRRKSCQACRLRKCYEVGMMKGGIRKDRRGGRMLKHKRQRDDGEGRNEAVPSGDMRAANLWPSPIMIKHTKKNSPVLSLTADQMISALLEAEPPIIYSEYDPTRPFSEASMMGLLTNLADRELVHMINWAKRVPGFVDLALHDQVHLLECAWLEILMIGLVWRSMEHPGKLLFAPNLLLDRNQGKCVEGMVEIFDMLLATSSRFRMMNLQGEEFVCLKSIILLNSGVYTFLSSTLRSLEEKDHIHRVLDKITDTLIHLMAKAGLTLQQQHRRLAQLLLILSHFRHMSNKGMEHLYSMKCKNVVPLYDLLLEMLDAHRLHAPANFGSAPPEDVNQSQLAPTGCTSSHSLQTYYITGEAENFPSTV
Method: (§1) Various hormonal activities of representative neuroactive steroids were further studied through testing their potential estrogenic, mineralocorticoid and glucocorticoid activities. These activities were analyzed by monitoring the ability of the compounds to inhibit binding of the steroid hormones to their respective hormone receptors.

Glucocorticoid Receptors = biological target: T2, Glucocorticoid Receptors (Rattus norvegicus, UniProt P06536); assay: Inhibition of 3H-Dexamethasone Binding to Glucocorticoid Receptors; conditions: competitor 10^−6M; 3 nM 3H-dexamethasone
T2 construct: from tissue; host or cells: rat brain cytosol
T2 sequence (P06536 1-795): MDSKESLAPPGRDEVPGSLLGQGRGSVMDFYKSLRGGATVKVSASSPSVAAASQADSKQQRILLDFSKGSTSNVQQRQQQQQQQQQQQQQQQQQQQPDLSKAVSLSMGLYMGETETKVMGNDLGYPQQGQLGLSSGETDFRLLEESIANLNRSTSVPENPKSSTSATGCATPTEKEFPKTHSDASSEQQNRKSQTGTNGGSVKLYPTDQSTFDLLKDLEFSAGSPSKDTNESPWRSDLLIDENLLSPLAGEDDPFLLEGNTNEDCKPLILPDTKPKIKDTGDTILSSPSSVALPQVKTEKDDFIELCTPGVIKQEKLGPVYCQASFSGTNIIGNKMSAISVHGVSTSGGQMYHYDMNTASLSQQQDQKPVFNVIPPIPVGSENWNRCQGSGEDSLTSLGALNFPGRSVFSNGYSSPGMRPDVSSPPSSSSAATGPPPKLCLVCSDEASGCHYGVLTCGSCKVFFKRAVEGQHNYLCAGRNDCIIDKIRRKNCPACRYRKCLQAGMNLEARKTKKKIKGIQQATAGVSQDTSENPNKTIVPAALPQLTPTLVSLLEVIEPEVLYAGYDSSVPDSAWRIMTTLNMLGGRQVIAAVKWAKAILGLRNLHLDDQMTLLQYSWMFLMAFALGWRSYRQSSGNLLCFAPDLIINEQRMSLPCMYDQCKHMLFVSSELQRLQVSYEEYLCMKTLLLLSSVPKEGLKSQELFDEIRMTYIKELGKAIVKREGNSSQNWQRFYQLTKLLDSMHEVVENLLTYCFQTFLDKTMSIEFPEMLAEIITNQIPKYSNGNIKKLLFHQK
Method: as §1
For Table 4, brain cytosol fractions were prepared as for Table 3, and the compounds were incubated with 3 nM of ^3H-dexamethasone (the specific ligand for the glucocorticoid receptor).

[5] = biological target: T3, Mineralocorticoid Receptors (Rattus norvegicus, UniProt P22199); assay: Inhibition of 3H-Aldosterone Binding to Hippocampal Mineralocorticoid Receptors; conditions: competitor 10^−6M; 3 nM 3H-aldosterone, RU28362 0.5 μM
T3 construct: To isolate the mineralocorticoid receptor, brain cytosol fractions were prepared; from tissue; host or cells: brain (hippocampal) cytosol of adrenalectomized rats
T3 sequence (P22199 1-981): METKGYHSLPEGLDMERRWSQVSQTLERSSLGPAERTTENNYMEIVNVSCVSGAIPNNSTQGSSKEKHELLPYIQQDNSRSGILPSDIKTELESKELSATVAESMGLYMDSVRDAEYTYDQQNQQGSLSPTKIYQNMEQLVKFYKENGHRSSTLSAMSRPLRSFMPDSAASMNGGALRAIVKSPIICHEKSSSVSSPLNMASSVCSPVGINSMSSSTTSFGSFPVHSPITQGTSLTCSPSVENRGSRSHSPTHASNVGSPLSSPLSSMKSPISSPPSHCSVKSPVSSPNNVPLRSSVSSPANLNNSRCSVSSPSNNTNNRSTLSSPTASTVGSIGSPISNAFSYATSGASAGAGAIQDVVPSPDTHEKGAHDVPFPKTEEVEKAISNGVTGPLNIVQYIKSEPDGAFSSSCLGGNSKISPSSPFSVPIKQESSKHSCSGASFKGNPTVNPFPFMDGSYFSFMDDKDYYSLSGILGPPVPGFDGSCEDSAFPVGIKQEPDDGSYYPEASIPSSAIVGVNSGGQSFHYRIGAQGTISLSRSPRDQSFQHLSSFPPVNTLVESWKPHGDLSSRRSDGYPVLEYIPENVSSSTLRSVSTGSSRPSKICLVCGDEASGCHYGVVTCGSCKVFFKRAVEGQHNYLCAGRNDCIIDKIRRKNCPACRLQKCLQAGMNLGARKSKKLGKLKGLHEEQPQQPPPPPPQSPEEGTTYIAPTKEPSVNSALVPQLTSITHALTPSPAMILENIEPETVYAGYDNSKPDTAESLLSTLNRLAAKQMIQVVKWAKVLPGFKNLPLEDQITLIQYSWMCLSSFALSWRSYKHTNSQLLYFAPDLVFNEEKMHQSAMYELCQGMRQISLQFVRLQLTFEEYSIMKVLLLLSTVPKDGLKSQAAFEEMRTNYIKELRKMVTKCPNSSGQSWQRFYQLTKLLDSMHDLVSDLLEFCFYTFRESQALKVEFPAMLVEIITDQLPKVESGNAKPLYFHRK
Method: as §1
In Table 4, rats were adrenalectornized 3 days prior to sacrifice.

Progesterone Receptors = assay: Inhibition of 3H-Progesterone Binding to the Bovine Uteral Progesterone Receptors; conditions: competitor 10^−6M; 3H-progesterone 0.15 nM
TBPS [6] = conditions: data from Swinyard & Woodhead 1982; cited from earlier work
[7] = data from Swinyard & Woodhead 1982; cited from earlier work
[8] = tested on: maximal electroshock tonic seizure; assay: Maximal electroshock test; format: in vivo, mice; conditions: Mus musculus, ip, 50% hydroxypropyl-β-cyclodextrin
Excerpt: (§2) The anticonvulsant tests are similar to that described above.

[9] = tested on: metrazol induced convulsions; assay: Antimetrazol activity in mice; format: in vivo; conditions: Mus musculus; steroid i.p., convulsant s.c., 50% hydroxypropyl-β-cyclodextrin
In short: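 Mice dosed with test compounds at various doses 10 minutes before metrazol (85 mg/kg) injection. Each animal observed for 30 minutes, recording time to onset of myoclonus (forelimb clonic activity).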

[10] = tested on: BIC (bicuclline) convulsions; assay: Chemical convulsant test, BIC; format: in vivo, mice; conditions: Mus musculus; steroid i.p., convulsant s.c., 50% hydroxypropyl-β-cyclodextrin
Excerpt: as §2

hormonal activity = assay: Hormonal activity in vivo; set-up: species or system animals
Excerpt: Thus, they wil not have the hormonal side-effects which would be associated with binding to such steroid receptors.

TBPS [11] = assay: Chemical convulsant test, column TBPS; format: in vivo, mice; conditions: Mus musculus, read-out: ED50 TBPS
Excerpt: as §2

[12] = tested on: STR (strychnine) convulsions; assay: Chemical convulsant test, strychnine; format: in vivo, mice; conditions: Mus musculus, read-out: ED50 STR
Excerpt: as §2

[13] = Rotorod test (general CNS depression potential); set-up: species or system mice; conditions: mouse, in vivo, ip, 50% hydroxypropyl-β-cyclodextrin
Excerpt: as §2

[14] = convulsant i.v., data from Worms et al. 1982
[15] = data from Swinyard & Woodhead 1982

In the case of `NC(=O)CCC/N=C(\c1ccc(Cl)cc1)c1cc(F)ccc1O` [Progabide], the “ED50 PTZ” value [1, 14] is given as 30 mg/kg, the “ED50 BIC” value [2, 14] is given as 30 mg/kg and the “ED50 STR” value [3, 14] is given as 75 mg/kg. For the same compound, the “ED50 MES” value ([4]; data from Worms et al. 1982) was 75 mg/kg.

For `CC(C)(O)[C@H]1CC[C@H]2[C@@H]3CC[C@H]4C[C@H](O)CC[C@]4(C)[C@H]3CC[C@]12C` [5α-pregnan-20-dimethyl-3α,20-diol, 5α-pregnan-20-dimethyl-3α,20-diol], the “% of Inhibition” value (Estrogen Receptors) was 0%, the “% of Inhibition” value (Glucocorticoid Receptors) was 2.6% and the “% of Inhibition” value [5] was 0%. For the same compound, the “% of Inhibition” value (Progesterone Receptors) was 0%.

For `C[C@]12CC[C@@H](O)C[C@H]1CC[C@@H]1[C@@H]2CC[C@]2(C)[C@@H](C(=O)CO)CC[C@@H]12` [5β-pregnan-3α,21-diol-20-one, 5β-pregnan-3α,21-diol-20-one], the “% of Inhibition” value (Estrogen Receptors) was 0%, the “% of Inhibition” value (Glucocorticoid Receptors) was 8.2% and the “% of Inhibition” value [5] was 13.8%. For the same compound, the “% of Inhibition” value (Progesterone Receptors) was 6%.

For `O=C1CN=C(c2ccccc2Cl)c2cc([N+](=O)[O-])ccc2N1` [Clonazepam], the “ED50 PTZ” value [1, 15] is given as 0.025 mg/kg, the “ED50 BIC” value [2, 15] is given as 0.0046 mg/kg and the “ED50 TBPS” value (TBPS [6]) is given as 205 mg/kg. The “ED50 STR” value [3, 15] was greater than 300 mg/kg, the “ED50 MES” value [4, 15] was 111 mg/kg and the “ED50 RR” value [7] was 0.184 mg/kg.

Work on `CC(=O)[C@H]1CC[C@H]2[C@@H]3CC[C@H]4C[C@](C)(O)CC[C@]4(C)[C@H]3CC[C@]12C` [5α-pregnan-3α-ol-3β-methyl-20-one, 3α-hydroxy-3β-methyl-5α-pregnan-20-one] yielded an ED50 [8] of 29.7 mg/kg, an ED50 [9] of 4.3 mg/kg and an ED50 [10] of 4.6 mg/kg. For the same compound, the “hormonal activity when given to animals in vivo” value (hormonal activity) was “not to have any hormonal activity”, the ED50 (TBPS [11]) was 11.7 mg/kg and the ED50 [12] was greater than 40 mg/kg. The “% of Inhibition” value (Progesterone Receptors) was 4% and the ED50 at 10 min [13] was 33.4 mg/kg.
